In ChEMBL document CHEMBL5113502, “Accommodation of ring C expanded deoxyvasicinone in the HDAC inhibitory pharmacophore culminates into a tractable anti-lung cancer agent and pH-responsive nanocarrier” (Eur J Med Chem, 2022):
The source made the active and inactive calls. The rule behind the calls is not given here.

Legend:
Homo sapiens [1] = organism: Homo sapiens; assay: Selectivity index, ratio of IC50 for HDAC5 (unknown origin) to IC50 for HDAC 6 (unknown origin)
Homo sapiens [2] = organism: Homo sapiens; assay: Selectivity index, ratio of IC50 for HDAC9 (unknown origin) to IC50 for HDAC 1 (unknown origin)
Homo sapiens [3] = organism: Homo sapiens; assay: Selectivity index, ratio of IC50 for HDAC 4 (unknown origin) to IC50 for HDAC 3 (unknown origin)
A549 [4] = assay: Induction of autophagy in human A549 cells by acridine orange and propidium iodide staining based fluorescence microscopic analysis; format: functional, cell-based; details: DDE = dose-dependent effect
A549 [5] = assay: Induction of apoptosis in human A549 cells assessed as nuclear condensation at 0.1 to 1 uM after 24 hrs by fluorescence microscopic analysis; format: functional, cell-based; details: dose 0.1-1 µM
Homo sapiens [6] = organism: Homo sapiens; assay: Selectivity index, ratio of IC50 for HDAC 2 (unknown origin) to IC50 for HDAC 3 (unknown origin)
Homo sapiens [7] = organism: Homo sapiens; assay: Selectivity index, ratio of IC50 for HDAC5 (unknown origin) to IC50 for HDAC 1 (unknown origin)
Homo sapiens [8] = organism: Homo sapiens; assay: Selectivity index, ratio of IC50 for HDAC6 (unknown origin) to IC50 for HDAC 3 (unknown origin)
Homo sapiens [9] = organism: Homo sapiens; assay: Selectivity index, ratio of IC50 for HDAC8 (unknown origin) to IC50 for HDAC 6 (unknown origin)
Homo sapiens [10] = organism: Homo sapiens; assay: Selectivity index, ratio of IC50 for HDAC 1 (unknown origin) to IC50 for HDAC 6 (unknown origin)
A549 [11] = assay: Induction of apoptosis in human A549 cells assessed as cell shrinkage at 0.1 to 1 uM after 24 hrs by fluorescence microscopic analysis; format: functional, cell-based; details: dose 0.1-1 µM
Homo sapiens [12] = organism: Homo sapiens; assay: Selectivity index, ratio of IC50 for HDAC 3 (unknown origin) to IC50 for HDAC 1 (unknown origin)
Homo sapiens [13] = organism: Homo sapiens; assay: Selectivity index, ratio of IC50 for HDAC7 (unknown origin) to IC50 for HDAC 6 (unknown origin)
A549 [14] = assay: Downregulation of HDAC6 expression in human A549 cells at 0.1 to 1 uM after 24 hrs by Western blot analysis; format: functional, cell-based; details: dose 0.1-1 µM
A549 [15] = assay: Induction of apoptosis in human A549 cells assessed as apoptotic bodies formation after 24 hrs by fluorescence microscopic analysis; format: functional, cell-based; details: dose 0.1-1 µM, DDE = dose-dependent effect
Homo sapiens [16] = organism: Homo sapiens; assay: Selectivity index, ratio of IC50 for HDAC7 (unknown origin) to IC50 for HDAC 1 (unknown origin)
Homo sapiens [17] = organism: Homo sapiens; assay: Selectivity index, ratio of IC50 for HDAC 4 (unknown origin) to IC50 for HDAC 1 (unknown origin)
Histone deacetylase 1 = Histone deacetylase 1 (Homo sapiens, UniProt Q13547); assay: Inhibition of HDAC1 (unknown origin) by colorimetric method
A549 [18] = assay: Cytotoxicity against human A549 cells assessed as cell viability after 48 hrs by MTT assay; format: functional, cell-based; details: A549, 48 h
A549 [19] = assay: Induction of apoptosis in human A549 cells assessed as […] deformation at 0.1 to 1 uM after 24 hrs by fluorescence microscopic analysis; format: functional, cell-based; details: dose 0.1-1 µM
Homo sapiens [20] = organism: Homo sapiens; assay: Selectivity index, ratio of IC50 for HDAC6 (unknown origin) to IC50 for HDAC 1 (unknown origin)
Histone deacetylase 3 = Histone deacetylase 3 (Homo sapiens, UniProt O15379); assay: Inhibition of HDAC3 (unknown origin) by colorimetric method
Histone deacetylase 9 = Histone deacetylase 9 (Homo sapiens, UniProt Q9UKV0); assay: Inhibition of HDAC9 (unknown origin) by colorimetric method
Homo sapiens [21] = organism: Homo sapiens; assay: Selectivity index, ratio of IC50 for HDAC 2 (unknown origin) to IC50 for HDAC 6 (unknown origin)
Homo sapiens [22] = organism: Homo sapiens; assay: Selectivity index, ratio of IC50 for HDAC 9 (unknown origin) to IC50 for HDAC 3 (unknown origin)
Histone deacetylase 8 = biological target: T1, Histone deacetylase 8 (Homo sapiens, UniProt Q9BY41); assay: Inhibition of HDAC8 (unknown origin) by colorimetric method
T1 sequence (Q9BY41 whole entry): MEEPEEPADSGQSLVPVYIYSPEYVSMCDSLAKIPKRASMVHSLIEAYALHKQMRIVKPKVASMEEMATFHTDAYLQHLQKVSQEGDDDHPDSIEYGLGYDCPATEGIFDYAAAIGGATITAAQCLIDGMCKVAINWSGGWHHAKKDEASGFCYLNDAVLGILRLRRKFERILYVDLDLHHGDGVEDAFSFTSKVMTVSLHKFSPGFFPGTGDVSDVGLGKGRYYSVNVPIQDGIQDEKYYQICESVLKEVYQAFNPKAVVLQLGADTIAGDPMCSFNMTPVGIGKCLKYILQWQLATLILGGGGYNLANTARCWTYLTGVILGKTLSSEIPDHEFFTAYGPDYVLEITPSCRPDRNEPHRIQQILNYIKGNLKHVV

Homo sapiens [23] = organism: Homo sapiens; assay: Selectivity index, ratio of IC50 for HDAC3 (unknown origin) to IC50 for HDAC 6 (unknown origin)
A549 [24] = assay: Induction of cell cycle arrest in human A549 cells assessed as accumulation at G0/G1 phase at 0.5 times IC50 after 48 hrs by flow cytometry; format: functional, cell-based
Histone deacetylase 5 = Histone deacetylase 5 (Homo sapiens, UniProt Q9UQL6); assay: Inhibition of HDAC5 (unknown origin) by colorimetric method
Homo sapiens [25] = organism: Homo sapiens; assay: Selectivity index, ratio of IC50 for HDAC 8 (unknown origin) to IC50 for HDAC 3 (unknown origin)
NCI-H727 = assay: Cytotoxicity against human NCI-H727 cells assessed as cell viability after 48 hrs by MTT assay; format: functional, cell-based; details: NCI-H727, 48 h
A549 [26] = assay: Inhibition of HDAC1/HDAC3/HDAC6 in human A549 cells assessed as increase in alpha-tubulin-ack40 level by Western blot analysis; format: cell-based

Histone deacetylase 3, sequence (O15379 whole entry): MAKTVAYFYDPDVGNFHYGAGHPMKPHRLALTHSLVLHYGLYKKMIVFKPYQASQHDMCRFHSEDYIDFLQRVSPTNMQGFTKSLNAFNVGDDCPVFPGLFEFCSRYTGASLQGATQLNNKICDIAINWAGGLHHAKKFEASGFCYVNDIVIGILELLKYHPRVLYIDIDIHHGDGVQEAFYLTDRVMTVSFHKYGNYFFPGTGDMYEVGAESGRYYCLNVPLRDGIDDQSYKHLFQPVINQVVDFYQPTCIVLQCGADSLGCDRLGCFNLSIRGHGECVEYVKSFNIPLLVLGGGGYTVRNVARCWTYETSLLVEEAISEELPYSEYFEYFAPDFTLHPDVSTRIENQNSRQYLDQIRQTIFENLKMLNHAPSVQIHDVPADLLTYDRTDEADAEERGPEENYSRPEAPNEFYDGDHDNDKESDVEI
Histone deacetylase 9, sequence (Q9UKV0 whole entry): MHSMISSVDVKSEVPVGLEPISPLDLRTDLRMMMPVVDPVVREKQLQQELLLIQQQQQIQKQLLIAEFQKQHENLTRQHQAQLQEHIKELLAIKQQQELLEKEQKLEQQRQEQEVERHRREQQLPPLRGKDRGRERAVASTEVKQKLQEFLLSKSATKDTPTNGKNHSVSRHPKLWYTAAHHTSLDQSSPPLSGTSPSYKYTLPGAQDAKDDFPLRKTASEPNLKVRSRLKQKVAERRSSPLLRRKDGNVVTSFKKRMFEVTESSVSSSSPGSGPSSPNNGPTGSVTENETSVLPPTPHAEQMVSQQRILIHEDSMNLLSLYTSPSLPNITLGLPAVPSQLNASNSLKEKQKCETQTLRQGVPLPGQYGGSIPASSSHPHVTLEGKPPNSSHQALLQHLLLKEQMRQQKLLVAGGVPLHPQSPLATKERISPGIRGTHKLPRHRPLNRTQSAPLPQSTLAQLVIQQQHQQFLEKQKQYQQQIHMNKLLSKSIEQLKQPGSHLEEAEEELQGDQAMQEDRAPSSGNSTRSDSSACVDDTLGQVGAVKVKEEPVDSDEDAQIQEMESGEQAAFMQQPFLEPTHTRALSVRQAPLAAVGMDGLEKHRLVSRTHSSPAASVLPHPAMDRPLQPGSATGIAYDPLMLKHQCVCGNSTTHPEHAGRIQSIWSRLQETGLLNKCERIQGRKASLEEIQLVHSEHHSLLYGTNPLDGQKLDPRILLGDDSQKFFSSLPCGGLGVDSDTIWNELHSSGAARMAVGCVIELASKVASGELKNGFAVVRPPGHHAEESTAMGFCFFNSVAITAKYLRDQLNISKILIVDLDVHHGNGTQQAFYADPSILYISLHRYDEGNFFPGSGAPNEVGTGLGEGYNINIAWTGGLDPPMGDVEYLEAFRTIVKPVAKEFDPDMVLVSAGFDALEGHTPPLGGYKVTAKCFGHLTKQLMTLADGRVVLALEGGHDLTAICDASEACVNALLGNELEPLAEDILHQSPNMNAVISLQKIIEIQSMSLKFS
Histone deacetylase 1, sequence (Q13547 whole entry): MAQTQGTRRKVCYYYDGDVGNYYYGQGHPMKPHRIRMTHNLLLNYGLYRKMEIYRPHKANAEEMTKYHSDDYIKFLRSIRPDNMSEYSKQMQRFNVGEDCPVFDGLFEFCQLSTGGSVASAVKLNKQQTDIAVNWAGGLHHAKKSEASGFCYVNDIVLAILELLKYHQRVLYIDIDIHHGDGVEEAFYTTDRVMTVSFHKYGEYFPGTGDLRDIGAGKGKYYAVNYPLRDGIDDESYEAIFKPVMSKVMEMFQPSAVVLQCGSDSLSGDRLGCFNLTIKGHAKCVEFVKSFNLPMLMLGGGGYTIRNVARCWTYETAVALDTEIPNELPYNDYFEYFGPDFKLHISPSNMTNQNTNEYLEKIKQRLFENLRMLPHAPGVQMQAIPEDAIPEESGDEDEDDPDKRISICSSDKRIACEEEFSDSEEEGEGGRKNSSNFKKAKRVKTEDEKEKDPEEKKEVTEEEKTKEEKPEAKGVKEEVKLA
Histone deacetylase 5, sequence (Q9UQL6 whole entry): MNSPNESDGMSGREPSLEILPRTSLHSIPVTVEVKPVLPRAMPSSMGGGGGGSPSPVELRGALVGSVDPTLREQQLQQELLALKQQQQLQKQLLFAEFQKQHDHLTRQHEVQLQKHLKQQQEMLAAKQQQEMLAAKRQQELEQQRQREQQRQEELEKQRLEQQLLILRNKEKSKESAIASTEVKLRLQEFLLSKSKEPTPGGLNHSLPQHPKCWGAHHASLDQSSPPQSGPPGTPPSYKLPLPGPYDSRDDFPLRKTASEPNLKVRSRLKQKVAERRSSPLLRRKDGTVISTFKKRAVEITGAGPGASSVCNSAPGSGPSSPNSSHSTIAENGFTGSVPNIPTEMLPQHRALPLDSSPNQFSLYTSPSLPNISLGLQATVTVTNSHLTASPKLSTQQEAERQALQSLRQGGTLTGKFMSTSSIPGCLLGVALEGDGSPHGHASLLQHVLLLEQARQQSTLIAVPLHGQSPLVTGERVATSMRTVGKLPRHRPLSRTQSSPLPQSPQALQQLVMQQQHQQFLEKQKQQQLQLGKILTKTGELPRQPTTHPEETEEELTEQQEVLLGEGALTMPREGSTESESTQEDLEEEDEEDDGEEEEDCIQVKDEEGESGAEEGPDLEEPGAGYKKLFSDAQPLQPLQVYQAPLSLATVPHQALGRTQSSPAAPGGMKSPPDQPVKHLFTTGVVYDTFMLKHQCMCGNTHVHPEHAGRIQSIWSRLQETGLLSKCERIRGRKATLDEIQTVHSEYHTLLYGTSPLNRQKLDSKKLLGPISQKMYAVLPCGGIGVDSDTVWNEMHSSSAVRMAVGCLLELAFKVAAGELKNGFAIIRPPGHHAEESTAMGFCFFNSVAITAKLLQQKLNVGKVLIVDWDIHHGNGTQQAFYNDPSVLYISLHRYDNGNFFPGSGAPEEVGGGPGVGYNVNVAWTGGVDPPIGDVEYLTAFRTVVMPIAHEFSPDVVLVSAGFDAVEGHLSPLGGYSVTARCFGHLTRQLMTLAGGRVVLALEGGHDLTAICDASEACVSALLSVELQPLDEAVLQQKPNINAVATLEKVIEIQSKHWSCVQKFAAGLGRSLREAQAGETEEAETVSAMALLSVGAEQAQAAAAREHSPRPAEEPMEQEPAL

- Ratio IC50 (Homo sapiens [1]): 47.8
- Ratio IC50 (Homo sapiens [2]): 86.6
- Ratio IC50 (Homo sapiens [3]): 23.8
- Ratio IC50 (Homo sapiens [6]): 18.4
- Ratio IC50 (Homo sapiens [7]): 12.4
- Ratio IC50 (Homo sapiens [8]): 0.188
- Ratio IC50 (Homo sapiens [9]): 13.7
- Ratio IC50 (Homo sapiens [10]): 3.86
- Ratio IC50 (Homo sapiens [12]): 1.37
- Ratio IC50 (Homo sapiens [13]): 316
- Ratio IC50 (Homo sapiens [16]): 81.8
- Ratio IC50 (Homo sapiens [17]): 32.7
- IC50 (Histone deacetylase 1): 49.9 nM
- Ratio IC50 (Homo sapiens [20]): 0.25
- IC50 (Histone deacetylase 3): 68.5 nM
- IC50 (Histone deacetylase 9): 4320 nM
- Ratio IC50 (Homo sapiens [21]): 97.7
- Ratio IC50 (Homo sapiens [22]): 63.1
- IC50 (Histone deacetylase 8): 178 nM
- Ratio IC50 (Homo sapiens [23]): 5.31
- IC50 (Histone deacetylase 5): 617 nM
- Ratio IC50 (Homo sapiens [25]): 2
Structure (SMILES): O=C(/C=C/c1ccc(CNc2ccc3nc4n(c(=O)c3c2)CCCCC4)cc1)NO
- Activity (A549 [4]): Dde
- Activity (A549 [5]): Active
- Activity (A549 [11]): Active
- inhibition (A549 [14]): Active
- Activity (A549 [15]): Dde
- IC50 (A549 [18]): 855 nM
- Activity (A549 [19]): Active
- Activity (A549 [24]): Active
- IC50 (NCI-H727): 960 nM
- inhibition (A549 [26]): Active
